Test results taken from patent US10508089B2, “Use of N-(1,3,4-Oxadiazol-2-yl)arylcarboxamides or their salts for controlling unwanted plants in areas of transgenic crop plants being tolerant to HPPD inhibitor herbicides” (BASF SE, priority 2014, dated 2019).

Legend:
Avena HPPD SEQ ID No 2 = Avena HPPD SEQ ID No 2 (Avena sativa, UniProt A0ACD5V6K6); test: Determination of HPPD activity in presence of N-(1,3,4-Oxadiazol-2-yl)arylcarboxamides (pI50); assay type: biochemical; details: negative log of molar concentration; inhibitor 0.1 to 100 μM; room temperature; 600 μM HPP
Description: (§1) HPPD activity was measured at room temperature by adding appropriate amounts of HPPD to a solution of 200 mM Tris-HCl pH 7.6, 10 mM ascorbate, 20 μM FeSO4, 650 units of catalase, 8 μg HGA dioxygenase (HGA: homogentisate) and 600 μM HPP in a total volume of 1 ml. Initial reaction rates in the absence or presence of inhibitors were determined from the increase in absorbance at 318 nm due to the formation of maleylacetoacetate (ϵ318=11,900 M−1 cm−1). pI50-values (the negative log values of the concentration of inhibitor necessary to inhibit 50% of the enzyme activity in molar concentration were determined from dose-response plots of HPPD activity versus inhibitor concentrations tested (0.1 to 100 μM) using the 4 Parameter Logistic Model or Sigmoidal Dose-Response Model of the ID Business Solutions Ltd. XLfit software suite. Due to the UV absorption of the HPPD inhibitors tested, inhibitor concentrations >100 μM could not be tested. In cases, the symbol “>” is used this means that the value was far higher than the one indicated but could not be precisely calculated within in the range of concentration of inhibitor tested.
(§2) In the 1st column of Table 8, the chemical compound employed in the assay is named (according to the numbering of the Tables 1 to 7, above). In columns 2, 3, 4, and 5 the pI50-values of the corresponding chemical compounds against various HPPD enzymes (name and SEQ ID Nos are indicated, respectively) are given.

FMP 37 SEQ ID No 9 = FMP 37 SEQ ID No 9 (Blepharisma japonicum, UniProt A8R3H6); test: as above; assay type: biochemical; details: negative log of molar concentration; inhibitor 0.1 to 100 μM; room temperature; 600 μM HPP
Description: as §1, §2

[1] = biological target: PfHPPD Evo 40 SEQ ID No 27 (Pseudomonas sp., UniProt P80064, A172V/A339E/A53E/D148E/D45N/E105D/E287Q/E300V/E334P/F143Y/G286D/G335S/H150N/H254A/H63N/I158V/I187A/I249V/K92N/L18F/N24G/N280D/S245T/S257K/S301E/T205S/V65I); test: biochemical; parameters: species or system Pseudomonas fluorescens
[2] = biological target: PfHPPD Evo 41 SEQ ID No 29 (Pseudomonas sp., UniProt P80064, A172V/A339Q/A53E/D148E/D45N/E105D/E287Q/E300V/E334P/F143Y/G286D/G335W/H150N/H254A/H63N/I158V/I187A/I249V/K338A/K92N/L18F/N24G/N280D/S245T/S257K/S301E/T205S/V65I); test: biochemical; parameters: species or system Pseudomonas fluorescens
[3] = system: tolerant transgenic soybean shoots; test: Soybean transformation, selection of shoots with HPPD inhibitor; assay type: in vivo; details: compared with untreated wild-type soybean shoots
From the text: (§3) Soybean transformation was achieved by using methods by best mode well known in the art, such as the one described using the Agrobacterium tumefaciens mediated transformation soybean half-seed explants using essentially the method described by Paz et al. (2006), Plant cell Rep. 25:206. Transformants were identified using various HPPD inhibitors tembotrione or isoxaflutole as selection marker. The appearance of green shoots can be observed, and documented as an indicator of tolerance to the respective herbicide.

wild-type soybean shoots = test: as above; assay type: in vivo; details: wild-type soybean shoots treated with the same amount of the respective HPPD inhibitor
From the text: as §3

PfHPPDEvo40 = PfHPPDEvo40 (Pseudomonas sp., UniProt P80064, A172V/A339E/A53E/D148E/D45N/E105D/E287Q/E300V/E334P/F143Y/G286D/G335S/H150N/H254A/H63N/I158V/I187A/I249V/K92N/L18F/N24G/N280D/S245T/S257K/S301E/T205S/V65I); test: Brown color assay of HPPD extracts on solid media containing an HPPD inhibitor; details: 250 uM inhibitor in solid media
Sequence of PfHPPDEvo40 (P80064 other isoform, or with tags, fused parts or gaps with the stated changes): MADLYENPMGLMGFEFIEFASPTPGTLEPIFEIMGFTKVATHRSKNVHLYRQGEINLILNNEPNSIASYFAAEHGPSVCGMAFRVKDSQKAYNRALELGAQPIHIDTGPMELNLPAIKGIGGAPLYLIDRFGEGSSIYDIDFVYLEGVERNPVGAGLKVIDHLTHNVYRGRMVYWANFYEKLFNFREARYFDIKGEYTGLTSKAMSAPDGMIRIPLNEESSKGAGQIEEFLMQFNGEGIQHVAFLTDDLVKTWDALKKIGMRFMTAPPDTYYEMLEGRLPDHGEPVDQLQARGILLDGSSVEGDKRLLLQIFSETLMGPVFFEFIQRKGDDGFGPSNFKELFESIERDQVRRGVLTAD

Sequence of PfHPPD Evo 40 SEQ ID No 27 (P80064 1-354 with tags or gaps with the stated changes limits assumed): as the sequence (P80064 other isoform, or with tags, fused parts or gaps with the stated changes) above
Sequence of PfHPPD Evo 41 SEQ ID No 29 (P80064 1-354 with tags or gaps with the stated changes limits assumed): as the sequence (P80064 other isoform, or with tags, fused parts or gaps with the stated changes) above, with S336W, K339A, E340Q counted along it
Sequence of FMP 37 SEQ ID No 9 (A8R3H6 entry or part of it): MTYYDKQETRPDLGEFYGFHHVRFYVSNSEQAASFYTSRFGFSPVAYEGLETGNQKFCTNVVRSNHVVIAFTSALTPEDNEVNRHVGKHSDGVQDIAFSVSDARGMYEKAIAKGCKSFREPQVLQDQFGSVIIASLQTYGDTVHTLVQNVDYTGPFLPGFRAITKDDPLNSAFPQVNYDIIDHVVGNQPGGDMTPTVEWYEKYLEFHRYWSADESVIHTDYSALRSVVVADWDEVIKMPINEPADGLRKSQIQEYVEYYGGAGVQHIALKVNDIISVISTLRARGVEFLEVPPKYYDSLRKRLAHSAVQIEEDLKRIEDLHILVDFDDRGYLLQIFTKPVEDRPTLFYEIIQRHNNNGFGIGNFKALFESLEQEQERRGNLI
Sequence of Avena HPPD SEQ ID No 2 (A0ACD5V6K6 entry or part of it): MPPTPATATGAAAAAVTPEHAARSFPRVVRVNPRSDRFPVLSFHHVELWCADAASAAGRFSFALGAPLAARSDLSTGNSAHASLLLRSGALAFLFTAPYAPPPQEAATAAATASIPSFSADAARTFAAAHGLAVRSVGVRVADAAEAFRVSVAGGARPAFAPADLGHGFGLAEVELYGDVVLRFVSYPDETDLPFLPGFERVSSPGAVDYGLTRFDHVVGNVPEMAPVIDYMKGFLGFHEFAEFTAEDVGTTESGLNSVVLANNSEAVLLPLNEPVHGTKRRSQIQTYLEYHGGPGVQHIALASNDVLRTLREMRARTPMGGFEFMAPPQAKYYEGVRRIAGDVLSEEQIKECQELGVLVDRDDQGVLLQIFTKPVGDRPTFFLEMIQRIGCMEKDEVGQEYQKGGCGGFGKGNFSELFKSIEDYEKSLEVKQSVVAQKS

| SMILES | IC50 (Avena HPPD SEQ ID No 2) [µM] | IC50 (FMP 37 SEQ ID No 9) [µM] | IC50 [1] [µM] | IC50 [2] [µM] | appearance of shoots under HPPD inhibitor selection [3] | appearance of shoots under HPPD inhibitor selection (wild-type soybean shoots) | tolerance of variant PfHPPDEvo40 compared to PfHPPD336W (brown pigment formation, titration of extract) (PfHPPDEvo40) |
| --- | --- | --- | --- | --- | --- | --- | --- |
| Cc1nnc(NC(=O)c2ccc(C(F)(F)F)c([S+](C)[O-])c2Cl)o1 (centres unmarked) [Compound 2-360] | 3.98 | 20 | 15.8 | 20 |  |  |  |
| Cc1nnc(NC(=O)c2ccc(C(F)(F)F)c([S+](C)[O-])c2C)o1 (centres unmarked) [Compound 2-144] | 3.98 | 12.6 | 6.31 | 10 |  |  |  |
| Cc1nnc(NC(=O)c2ccc(C(F)(F)F)c(S(C)(=O)=O)c2Cl)o1 [Compound 2-361] | 1.58 | 12.6 | 5.01 | 7.94 |  |  |  |
| Cc1nnc(NC(=O)c2ccc(C(F)(F)F)c(-n3cccn3)c2Cl)o1 [Compound 2-363] | 1.58 | 10 | 6.31 | 12.6 |  |  |  |
| Cc1c(C(=O)Nc2nnc(C3CC3)o2)ccc(C(F)(F)F)c1[S+](C)[O-] (centres unmarked) [Compound 6-37] | 39.8 | 158 | 126 | 158 |  |  |  |
| COCc1nnc(NC(=O)c2ccc(C(F)(F)F)c(S(C)(=O)=O)c2C)o1 [Compound 5-145] | 3.16 | 10 | < 5.01 | < 5.01 |  |  |  |
| Cc1nnc(NC(=O)c2ccc(C(F)(F)F)nc2C)o1 [Compound 7-132] | 15.8 | 7.94 | 200 | 251 |  |  |  |
| CS(=O)(=O)c1cc(C(F)(F)F)ccc1C(=O)c1cnoc1C1CC1 [isoxaflutole] |  |  |  |  | normal greening | entirely bleached |  |
| Cc1nnc(NC(=O)c2ccc(C(F)(F)F)c(OCCF)c2Cl)o1 [Compound 2-364] | 1.58 | 7.94 | 12.6 | 31.6 |  |  |  |
| CS(=O)(=O)c1ccc(C(=O)C2C(=O)CCCC2=O)c(Cl)c1COCC(F)(F)F [tembotrione] |  |  |  |  | normal greening | entirely bleached | improved tolerance |
| CS(=O)(=O)c1cc(C(F)(F)F)ccc1C(=O)C(C#N)C(=O)C1CC1 (centres unmarked) [diketonitrile] |  |  |  |  |  |  | improved tolerance |
